# Results from ChEMBL document CHEMBL5316326, “Discovery of a Novel Covalent EZH2 Inhibitor Based on Tazemetostat Scaffold for the Treatment of Ovarian Cancer” (J Med Chem, 2023).
# Activity calls are given as the source filed them. The calls are words filed in the database; no cut-off is given here.
# Experiments:
# [1] = target: T1, Histone-lysine N-methyltransferase EZH2 (Homo sapiens, UniProt Q15910); assay: Inhibition of EZH2 methyltransferase activity in human A2780 cells assessed as reduction in H3K27me3 level at 10 uM and measured upto 4 days by Western blot analysis; type: cell-based; conditions: time <= 4.0 day, TDE = time-dependent effect
# Target sequence in this assay (Q15910 whole entry, looked up): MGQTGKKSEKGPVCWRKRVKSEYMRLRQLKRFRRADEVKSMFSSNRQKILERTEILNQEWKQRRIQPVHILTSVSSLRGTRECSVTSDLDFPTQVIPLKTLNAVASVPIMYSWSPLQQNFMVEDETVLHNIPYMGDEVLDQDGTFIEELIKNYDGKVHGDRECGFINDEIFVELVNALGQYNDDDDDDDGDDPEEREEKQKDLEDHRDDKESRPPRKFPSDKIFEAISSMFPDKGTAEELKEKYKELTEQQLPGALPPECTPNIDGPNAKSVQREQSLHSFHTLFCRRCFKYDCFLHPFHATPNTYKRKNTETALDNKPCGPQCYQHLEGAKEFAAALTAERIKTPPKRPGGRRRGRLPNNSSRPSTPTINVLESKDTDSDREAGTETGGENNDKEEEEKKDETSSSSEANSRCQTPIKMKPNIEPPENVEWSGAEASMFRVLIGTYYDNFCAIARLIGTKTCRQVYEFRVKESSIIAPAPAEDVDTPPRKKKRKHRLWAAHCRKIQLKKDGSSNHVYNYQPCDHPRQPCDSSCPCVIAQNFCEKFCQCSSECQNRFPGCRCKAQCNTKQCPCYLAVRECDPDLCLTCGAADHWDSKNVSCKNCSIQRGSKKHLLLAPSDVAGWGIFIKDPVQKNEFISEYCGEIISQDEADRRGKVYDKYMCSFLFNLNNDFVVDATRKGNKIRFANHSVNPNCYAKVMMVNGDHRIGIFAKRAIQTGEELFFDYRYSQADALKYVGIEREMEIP
# [2] = test system: PA-1; assay: Antitumor activity against human PA-1 cells xenografted in BALB/C nude mouse assessed as reduction tumor cell proliferation at 75 to 150 mg/kg,po BID for 21 days by Ki67 staining based immunohistochemical analysis; type: functional, organism-based; conditions: dose 75-150 mg/kg, time 21.0 day
# [3] = AUCt in Sprague-Dawley rat at 5 mg/kg, iv and measured upto 24 hrs by LC-MS/MS analysis; type: ADME, organism-based; design: time < 24 hrs, dose 5 mg/kg, route iv; conditions: in vivo
# [4] = Protein binding in Sprague-Dawley rat plasma at 2 uM incubated for 5 hrs by equilibrium dialysis based LC-MS/MS analysis; type: ADME, cell-free; conditions: read-out: PPB (converted)
# [5] = Tmax in Sprague-Dawley rat at 100 mg/kg, po and measured upto 24 hrs by LC-MS/MS analysis; type: ADME, organism-based; conditions: in vivo
# [6] = Oral bioavailability in Sprague-Dawley rat at 100 mg/kg and measured upto 24 hrs by LC-MS/MS analysis; type: ADME, organism-based; conditions: in vivo
# [7] = Toxicity in BALB/C nude mouse xenografted with human PA-1 cells assessed as pathological changes in spleen at 75 to 150 mg/kg,po BID for 21 days by H&E staining based microscopic analysis; type: organism-based; conditions: in vivo, 504 h, dose 75-150 mg/kg, time 21 day
# [8] = test system: A2780; assay: Inhibition of colony formation in human A2780 cells assessed as reduction in number of colonies at 0.25 to 10 uM incubated for 14 days with medium change every 3 days by crystal violet staining method; type: functional, cell-based; conditions: dose 0.25-10 µM, time 14.0 day
# [9] = target: Histone-lysine N-methyltransferase SUV39H1 (Homo sapiens) (UniProt O43463); assay: Inhibition of SUV39H1 (unknown origin) at 1 to 10 uM by AlphaLlSA assay; conditions: dose 1-10 µM
# [10] = test system: PA-1; assay: Induction of apoptosis in human PA-1 cells assessed as viable cells at 10 uM incubated for 48 hrs by AnnexinV-FITC/PI staining based flow cytometry analysis (Rvb= 88.53%); type: functional; conditions: read-out: Activity
# [11] = target: Histone-lysine N-methyltransferase EHMT2 (Homo sapiens) (UniProt Q96KQ7); assay: Inhibition of G9a (unknown origin) at 1 to 10 uM by AlphaLlSA assay; conditions: dose 1-10 µM
# [12] = test system: A2780; assay: Inhibition of colony formation in human A2780 cells assessed as reduction in size of colonies at 0.25 to 10 uM incubated for 14 days with medium change every 3 days by crystal violet staining method; type: functional, cell-based; conditions: dose 0.25-10 µM, time 14.0 day
# [13] = target: T1, Histone-lysine N-methyltransferase EZH2; assay: Inhibition of wild type EZH2 (unknown origin) by AlphaLlSA assay
# Target sequence in this assay (Q15910 whole entry): as the sequence (Q15910 whole entry, looked up) above
# [14] = test system: SK-BR-3; assay: Antiproliferative activity against human SK-BR-3 cells assessed as inhibition of cell proliferation incubated for 72 hrs by MTT assay; type: functional, cell-based; conditions: SK-BR-3, 72 h
# [15] = test system: PA-1; assay: Induction of apoptosis in human PA-1 cells assessed as viable cells at 5 uM incubated for 48 hrs by AnnexinV-FITC/PI staining based flow cytometry analysis (Rvb= 88.53%); type: functional; conditions: read-out: Activity
# Sequence of Histone-lysine N-methyltransferase SUV39H1 (Homo sapiens) (O43463 whole entry): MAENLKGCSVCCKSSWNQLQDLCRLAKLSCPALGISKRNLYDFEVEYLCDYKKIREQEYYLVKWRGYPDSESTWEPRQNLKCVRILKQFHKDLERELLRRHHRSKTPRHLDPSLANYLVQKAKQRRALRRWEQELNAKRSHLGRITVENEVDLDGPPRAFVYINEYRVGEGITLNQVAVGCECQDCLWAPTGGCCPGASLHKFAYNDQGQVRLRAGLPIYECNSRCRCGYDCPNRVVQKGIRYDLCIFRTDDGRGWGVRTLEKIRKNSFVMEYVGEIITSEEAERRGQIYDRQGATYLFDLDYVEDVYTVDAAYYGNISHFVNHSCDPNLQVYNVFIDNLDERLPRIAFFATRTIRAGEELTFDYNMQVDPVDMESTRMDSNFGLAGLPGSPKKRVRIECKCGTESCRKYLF
# Sequence of Histone-lysine N-methyltransferase EHMT2 (Homo sapiens) (Q96KQ7 whole entry): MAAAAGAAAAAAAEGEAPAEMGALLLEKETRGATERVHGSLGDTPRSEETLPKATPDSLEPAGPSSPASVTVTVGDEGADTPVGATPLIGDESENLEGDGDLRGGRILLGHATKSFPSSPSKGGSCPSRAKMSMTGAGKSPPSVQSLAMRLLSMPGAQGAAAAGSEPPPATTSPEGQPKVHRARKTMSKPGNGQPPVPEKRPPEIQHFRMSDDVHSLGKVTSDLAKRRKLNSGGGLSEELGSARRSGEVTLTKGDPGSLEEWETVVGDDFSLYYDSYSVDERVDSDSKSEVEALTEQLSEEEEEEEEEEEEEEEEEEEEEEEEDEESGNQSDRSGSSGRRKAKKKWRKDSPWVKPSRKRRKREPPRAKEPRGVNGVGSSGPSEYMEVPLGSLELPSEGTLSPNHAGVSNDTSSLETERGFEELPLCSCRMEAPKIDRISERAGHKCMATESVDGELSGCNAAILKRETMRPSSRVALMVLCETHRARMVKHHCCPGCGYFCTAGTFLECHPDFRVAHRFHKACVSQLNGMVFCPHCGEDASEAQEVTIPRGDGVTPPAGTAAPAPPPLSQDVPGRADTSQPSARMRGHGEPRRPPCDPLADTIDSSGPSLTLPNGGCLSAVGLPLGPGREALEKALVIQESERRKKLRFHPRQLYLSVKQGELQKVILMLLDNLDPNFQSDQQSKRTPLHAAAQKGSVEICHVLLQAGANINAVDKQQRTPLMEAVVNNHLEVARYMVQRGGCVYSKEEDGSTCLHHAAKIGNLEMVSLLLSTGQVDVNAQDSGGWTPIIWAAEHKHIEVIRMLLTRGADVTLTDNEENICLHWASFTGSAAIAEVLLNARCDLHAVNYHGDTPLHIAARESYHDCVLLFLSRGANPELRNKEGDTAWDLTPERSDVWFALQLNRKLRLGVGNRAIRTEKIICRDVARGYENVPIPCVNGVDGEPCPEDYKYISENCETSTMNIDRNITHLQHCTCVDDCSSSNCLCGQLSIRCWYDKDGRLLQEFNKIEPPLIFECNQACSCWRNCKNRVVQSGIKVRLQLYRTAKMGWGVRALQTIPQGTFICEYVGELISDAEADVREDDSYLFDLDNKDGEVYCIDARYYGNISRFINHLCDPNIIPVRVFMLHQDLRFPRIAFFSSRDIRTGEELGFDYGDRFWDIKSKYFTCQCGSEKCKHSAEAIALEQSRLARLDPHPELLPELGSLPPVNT
smiles,measurement,setting,value
C=CC(=O)Nc1ccc(C)c(-c2cc(C(=O)NCc3c(C)cc(C)[nH]c3=O)c(C)c(N(CC)C3CCOCC3)c2)c1,inhibition,[1],Tde
same,Activity,[2],Active
same,AUCt,[3],7225.47 ng·h/mL
same,"fraction unbound at 5 h, 2 µM",[4],0.0022
same,Tmax,[5],22.8 min
same,bioavailability,[6],8.73%
same,Activity,[7],Non-Toxic
same,inhibition,[8],Dose-Dependent Effect
same,inhibition,[9],inactive
same,viability at 10 µM,[10],70.5%
same,inhibition,[11],inactive
same,inhibition,[12],Dose-Dependent Effect
same,IC50,[13],0.00172 µM
same,IC50,[14],22.8 µM
same,viability at 5 µM,[15],83.2%
